In the test the test system is KB. Put plainly: Cytotoxicity against human KB cells. It counts as functional, cell-based.

For the compound `CCCCCCCCCCCC(=O)OC(C)C(OC(C)=O)C(C)C(=O)NC[C@H](O)CC(=O)OC` (some centres not stated) [GUAMAMIDE], 1200 nM corresponded to half-maximal inhibition (IC50). Regarding `CCC[C@H](CC(=O)N[C@@H](Cc1ccccc1)C(=O)N(C)[C@@H](C(=O)N[C@H](C(=O)N(C)[C@H](C(=O)N(C)[C@@H](Cc1ccccc1)C(=O)N(C)Cc1nccs1)[C@@H](C)CC)C(C)C)C(C)C)OC` [MICROMIDE], the half-maximal inhibitory concentration (IC50) stood at 260 nM.

Usually IC50 stands for the concentration at which inhibition is half-maximal. Low values mean greater potency, high ones weaker potency.

The values above are taken from ChEMBL document CHEMBL1148151, “Micromide and guamamide: cytotoxic alkaloids from a species of the marine cyanobacterium Symploca” (J Nat Prod, 2004).
